In patent publication US4401660A, “Ester derivatives of 5-O-mycaminosyl tylonolide and method of using same” (Eli Lilly and Company, priority 1981, dated 1983):
Like-named read-outs stand apart in the source and are kept apart here.

Assays:
[1] = tested on: Staphylococcus aureus X1.1; assay: MIC, standard agar-dilution assay (Table II); type: cell-based; set-up: unit not given here
Protocol: (§1) The MIC's in Table II were determined by standard agar-dilution assays. The MIC's in Table III were obtained using a conventional broth-dilution microtiter test.

[2] = tested on: Staphylococcus epidermidis EPI2; assay: MIC, standard agar-dilution assay (Table II); type: cell-based; set-up: unit not given here
Protocol: as §1

[3] = tested on: Staphylococcus aureus X400; assay: MIC, standard agar-dilution assay (Table II); type: cell-based; set-up: unit not given here; details: Staphylococcus aureus X400, methicillin-resistant strain
Protocol: as §1

[4] = tested on: Streptococcus Group D 9960; assay: MIC, standard agar-dilution assay (Table II); type: cell-based; set-up: unit not given here
Protocol: as §1

[5] = tested on: Streptococcus pneumoniae Park I; assay: MIC, standard agar-dilution assay (Table II); type: cell-based; set-up: unit not given here
Protocol: as §1

[6] = tested on: Staphylococcus aureus S13E; assay: MIC, standard agar-dilution assay (Table II); type: cell-based; set-up: unit not given here
Protocol: as §1

[7] = tested on: Staphylococcus aureus V41; assay: MIC, standard agar-dilution assay (Table II); type: cell-based; set-up: unit not given here; details: Staphylococcus aureus V41, penicillin-resistant strain
Protocol: as §1

[8] = tested on: Streptococcus Group D X66; assay: MIC, standard agar-dilution assay (Table II); type: cell-based; set-up: unit not given here
Protocol: as §1

[9] = tested on: Streptococcus pyogenes C203; assay: MIC, standard agar-dilution assay (Table II); type: cell-based; set-up: unit not given here
Protocol: as §1

[10] = tested on: Staphylococcus epidermidis EPI1; assay: MIC, standard agar-dilution assay (Table II); type: cell-based; set-up: unit not given here
Protocol: as §1

[11] = tested on: Pasteurella multocida 22A; assay: MIC, broth-dilution microtiter test (Table III); type: cell-based; set-up: unit not given here
Protocol: as §1

Streptococcus sp. 80 = assay: MIC, broth-dilution microtiter test (Table III); type: cell-based; set-up: unit not given here
Protocol: as §1

[12] = tested on: Pasteurella multocida 17E; assay: MIC, broth-dilution microtiter test (Table III); type: cell-based; set-up: unit not given here; details: bovine isolate
Protocol: as §1

[13] = tested on: Pasteurella multocida 68C; assay: MIC, broth-dilution microtiter test (Table III); type: cell-based; set-up: unit not given here
Protocol: as §1

[14] = tested on: Pasteurella multocida 40G; assay: MIC, broth-dilution microtiter test (Table III); type: cell-based; set-up: unit not given here
Protocol: as §1

[15] = tested on: Pasteurella multocida 60A; assay: MIC, broth-dilution microtiter test (Table III); type: cell-based; set-up: unit not given here; details: avian isolate
Protocol: as §1

[16] = tested on: Pasteurella haemolytica 41D; assay: MIC, broth-dilution microtiter test (Table III); type: cell-based; set-up: unit not given here
Protocol: as §1

Staphylococcus aureus = assay: MIC, broth-dilution microtiter test (Table III); type: cell-based; set-up: unit not given here
Protocol: as §1

Mycoplasma synoviae = assay: MIC, broth-dilution microtiter test (Table III); type: cell-based; set-up: unit not given here
Protocol: as §1

[17] = tested on: Pasteurella haemolytica 23C; assay: MIC, broth-dilution microtiter test (Table III); type: cell-based; set-up: unit not given here
Protocol: as §1

Mycoplasma hyorhinis = assay: MIC, broth-dilution microtiter test (Table III); type: cell-based; set-up: unit not given here
Protocol: as §1

Mycoplasma gallisepticum = assay: MIC, broth-dilution microtiter test (Table III); type: cell-based; set-up: unit not given here
Protocol: as §1

[18] = tested on: Pasteurella haemolytica 22C; assay: MIC, broth-dilution microtiter test (Table III); type: cell-based; set-up: unit not given here
Protocol: as §1

[19] = tested on: Streptococcus pyogenes C203; assay: ED50 in mice with experimental infections (Table IV); type: in vivo; details: doses given 1 and 4 hours postinfection; for ED50: Streptococcus pyogenes
Protocol: The OMT ester derivatives of this invention have shown in vivo antimicrobial activity against experimental bacterial infections caused by gram-positive bacteria. When two doses of test compound were administered to mice with experimental infections, the activity observed was measured as an ED50 value [effective dose in mg/kg to protect 50% of the test animals: see Warren Wick, et al., J. Bacteriol. 81, 233-235 (1961)].
^a mg/kg × 2; doses given 1 and 4 hours postinfection

Pasteurella multocida = assay: Treatment of Pasteurella infections in chicks (Table V); type: in vivo, one-day-old chicks; details: 30 mg/kg by subcutaneous injection one and four hours post challenge; for mortality at 30 mg/kg: Pasteurella multocida, sc, 4 h, read-out: Deaths in Treated Chicks/Number Treated (converted)
How it was run: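 One-day-old chicks challenged subcutaneously with avian P. multocida (0.1 ml of 10^-3 dilution of 20-hour tryptose broth culture). Esters given at 30 mg/kg subcutaneously at 1 and 4 hours post challenge. Untreated infected controls, ten per group.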

[20] = tested on: Haemophilus influenzae Holt; assay: MIC, standard agar-dilution assay (Table II); type: cell-based; set-up: unit not given here; details: ampicillin-sensitive strain
Protocol: as §1

[21] = tested on: Haemophilus influenzae R252; assay: MIC, standard agar-dilution assay (Table II); type: cell-based; set-up: unit not given here; details: Haemophilus influenzae R252, ampicillin-resistant strain
Protocol: as §1

[22] = C203, oral, read-out: ED50, Oral
[23] = C203, sc, subcutaneous, read-out: ED50, Subcutaneous

CCC1OC(=O)CC(O)C(C)C(OC2OC(C)C(O)C(N(C)C)C2O)C(CC=O)CC(C)C(=O)C=CC(C)=CC1COC(=O)CSc1ccc(Cl)c(Cl)c1 (centres unmarked) [Compound 38, 23-O-[(3,4-Dichlorophenylthio)acetyl]-OMT]
minimal inhibitory concentration (MIC) [1]: 0.125 | minimal inhibitory concentration (MIC) [2]: 0.25 | minimal inhibitory concentration (MIC) [3]: 0.25 | minimal inhibitory concentration (MIC) [4]: 0.125 | minimal inhibitory concentration (MIC) [5]: 0.03 | minimal inhibitory concentration (MIC) [6]: 0.125 | minimal inhibitory concentration (MIC) [7]: 0.25 | minimal inhibitory concentration (MIC) [8]: 0.125 | minimal inhibitory concentration (MIC) [9]: 0.06 | minimal inhibitory concentration (MIC) [10]: 0.25 | minimal inhibitory concentration (MIC) [11]: 3.12 | minimal inhibitory concentration (MIC) (Streptococcus sp. 80): < 0.05 | minimal inhibitory concentration (MIC) [12]: 1.56 | minimal inhibitory concentration (MIC) [13]: 1.56 | minimal inhibitory concentration (MIC) [14]: 1.56 | minimal inhibitory concentration (MIC) [15]: 1.56 | minimal inhibitory concentration (MIC) [16]: 6.25 | minimal inhibitory concentration (MIC) (Staphylococcus aureus): < 0.05 | minimal inhibitory concentration (MIC) (Mycoplasma synoviae): 0.097 | minimal inhibitory concentration (MIC) [17]: 6.25 | minimal inhibitory concentration (MIC) (Mycoplasma hyorhinis): 3.12 | minimal inhibitory concentration (MIC) (Mycoplasma gallisepticum): < 0.05 | minimal inhibitory concentration (MIC) [18]: 3.12 | ED50 [19, 22]: > 150 mg/kg | mortality at 30 mg/kg (Pasteurella multocida): 10%

CCC1OC(=O)CC(O)C(C)C(OC2OC(C)C(O)C(N(C)C)C2O)C(CC=O)CC(C)C(=O)C=CC(C)=CC1COP(=O)(Oc1ccccc1)Oc1ccccc1 (centres unmarked) [Compound 48, 23-O-(Diphenylphosphoryl)-OMT]
minimal inhibitory concentration (MIC) [1]: 0.25 | minimal inhibitory concentration (MIC) [2]: 0.25 | minimal inhibitory concentration (MIC) [3]: 0.25 | minimal inhibitory concentration (MIC) [4]: 0.25 | minimal inhibitory concentration (MIC) [5]: 0.03 | minimal inhibitory concentration (MIC) [6]: 0.25 | minimal inhibitory concentration (MIC) [7]: 0.25 | minimal inhibitory concentration (MIC) [8]: 0.25 | minimal inhibitory concentration (MIC) [9]: 0.125 | minimal inhibitory concentration (MIC) [10]: 0.25 | minimal inhibitory concentration (MIC) [11]: 6.25 | minimal inhibitory concentration (MIC) (Streptococcus sp. 80): 0.195 | minimal inhibitory concentration (MIC) [12]: 6.25 | minimal inhibitory concentration (MIC) [13]: 6.25 | minimal inhibitory concentration (MIC) [14]: 6.25 | minimal inhibitory concentration (MIC) [15]: 6.25 | minimal inhibitory concentration (MIC) [16]: 6.25 | minimal inhibitory concentration (MIC) (Staphylococcus aureus): 0.39 | minimal inhibitory concentration (MIC) (Mycoplasma synoviae): 0.78 | minimal inhibitory concentration (MIC) [17]: 12.5 | minimal inhibitory concentration (MIC) (Mycoplasma hyorhinis): 0.78 | minimal inhibitory concentration (MIC) (Mycoplasma gallisepticum): 0.78 | minimal inhibitory concentration (MIC) [18]: 6.25 | ED50, Oral ([19]; oral): > 150 mg/kg × 2 | ED50, Subcutaneous ([19]; subcutaneous): > 30 mg/kg × 2 | Deaths in Treated Chicks/Number Treated (Pasteurella multocida): 10/10

CCC1OC(=O)CC(O)C(C)C(OC2OC(C)C(OC(C)=O)C(N(C)C)C2OC(C)=O)C(CC=O)CC(C)C(=O)C=CC(C)=CC1COC(=O)c1ccccc1 (centres unmarked) [Compound 6, 23-O-Benzoyl-2',4'-Di-O-acetyl-OMT]
minimal inhibitory concentration (MIC) [20]: 2 | minimal inhibitory concentration (MIC) [2]: 0.5 | minimal inhibitory concentration (MIC) [21]: 2 | minimal inhibitory concentration (MIC) [3]: 0.25 | minimal inhibitory concentration (MIC) [4]: 0.25 | minimal inhibitory concentration (MIC) [5]: 0.06 | minimal inhibitory concentration (MIC) [6]: 0.25 | minimal inhibitory concentration (MIC) [7]: 0.25 | minimal inhibitory concentration (MIC) [8]: 0.25 | minimal inhibitory concentration (MIC) [9]: 0.125 | minimal inhibitory concentration (MIC) [10]: 0.25 | minimal inhibitory concentration (MIC) [11]: 1.56 | minimal inhibitory concentration (MIC) (Streptococcus sp. 80): 0.195 | minimal inhibitory concentration (MIC) [12]: 1.56 | minimal inhibitory concentration (MIC) [13]: 0.78 | minimal inhibitory concentration (MIC) [15]: 0.78 | minimal inhibitory concentration (MIC) [16]: 3.12 | minimal inhibitory concentration (MIC) (Staphylococcus aureus): 0.39 | minimal inhibitory concentration (MIC) (Mycoplasma synoviae): 0.39 | minimal inhibitory concentration (MIC) [17]: 3.12 | minimal inhibitory concentration (MIC) (Mycoplasma hyorhinis): 0.39 | minimal inhibitory concentration (MIC) (Mycoplasma gallisepticum): < 0.05 | minimal inhibitory concentration (MIC) [18]: 6.25 | ED50 [19, 22]: 146 mg/kg | ED50 [19, 23]: > 30 mg/kg | mortality at 30 mg/kg (Pasteurella multocida): 80%

CCC1OC(=O)CC(O)C(C)C(OC2OC(C)C(O)C(N(C)C)C2OC(C)=O)C(CC=O)CC(C)C(=O)C=CC(C)=CC1COC(=O)Cc1ccccc1 (centres unmarked) [Compound 28]
minimal inhibitory concentration (MIC) [20]: 1 | minimal inhibitory concentration (MIC) [1]: 0.125 | minimal inhibitory concentration (MIC) [2]: 0.125 | minimal inhibitory concentration (MIC) [21]: 1 | minimal inhibitory concentration (MIC) [3]: 0.25 | minimal inhibitory concentration (MIC) [4]: 0.125 | minimal inhibitory concentration (MIC) [5]: 0.015 | minimal inhibitory concentration (MIC) [6]: 0.125 | minimal inhibitory concentration (MIC) [7]: 0.125 | minimal inhibitory concentration (MIC) [8]: 0.125 | minimal inhibitory concentration (MIC) [9]: 0.125 | minimal inhibitory concentration (MIC) [10]: 0.125 | minimal inhibitory concentration (MIC) [11]: 3.12 | minimal inhibitory concentration (MIC) (Streptococcus sp. 80): < 0.05 | minimal inhibitory concentration (MIC) [12]: 1.56 | minimal inhibitory concentration (MIC) [13]: 0.78 | minimal inhibitory concentration (MIC) [15]: 0.78 | minimal inhibitory concentration (MIC) [16]: 3.12 | minimal inhibitory concentration (MIC) (Staphylococcus aureus): 0.195 | minimal inhibitory concentration (MIC) (Mycoplasma synoviae): < 0.05 | minimal inhibitory concentration (MIC) [17]: 3.12 | minimal inhibitory concentration (MIC) (Mycoplasma hyorhinis): 1.56 | minimal inhibitory concentration (MIC) (Mycoplasma gallisepticum): < 0.05 | minimal inhibitory concentration (MIC) [18]: 6.25 | ED50 [19, 22]: 155 mg/kg | ED50 [19, 23]: 6.5 mg/kg | mortality at 30 mg/kg (Pasteurella multocida): 80%

CCC1OC(=O)CC(O)C(C)C(OC2OC(C)C(O)C(N(C)C)C2O)C(CC=O)CC(C)C(=O)C=CC(C)=CC1COC(=O)c1ccccc1 (centres unmarked) [Compound 26, 23-O-Benzoyl-OMT]
minimal inhibitory concentration (MIC) [20]: 2 | minimal inhibitory concentration (MIC) [1]: 0.25 | minimal inhibitory concentration (MIC) [2]: 0.5 | minimal inhibitory concentration (MIC) [21]: 2 | minimal inhibitory concentration (MIC) [3]: 0.5 | minimal inhibitory concentration (MIC) [4]: 0.25 | minimal inhibitory concentration (MIC) [5]: 0.06 | minimal inhibitory concentration (MIC) [6]: 0.25 | minimal inhibitory concentration (MIC) [7]: 0.25 | minimal inhibitory concentration (MIC) [8]: 0.25 | minimal inhibitory concentration (MIC) [9]: 0.125 | minimal inhibitory concentration (MIC) [10]: 0.25 | minimal inhibitory concentration (MIC) [11]: 1.56 | minimal inhibitory concentration (MIC) (Streptococcus sp. 80): 0.195 | minimal inhibitory concentration (MIC) [12]: 1.56 | minimal inhibitory concentration (MIC) [13]: 1.56 | minimal inhibitory concentration (MIC) [15]: 0.78 | minimal inhibitory concentration (MIC) [16]: 6.25 | minimal inhibitory concentration (MIC) (Staphylococcus aureus): 0.39 | minimal inhibitory concentration (MIC) (Mycoplasma synoviae): 0.39 | minimal inhibitory concentration (MIC) [17]: 3.12 | minimal inhibitory concentration (MIC) (Mycoplasma hyorhinis): 0.39 | minimal inhibitory concentration (MIC) (Mycoplasma gallisepticum): < 0.05 | minimal inhibitory concentration (MIC) [18]: 6.25 | ED50 [19, 22]: 136 mg/kg | ED50 [19, 23]: 10.6 mg/kg | mortality at 30 mg/kg (Pasteurella multocida): 100%
